IC50 data for 14 compounds are collected here from ChEMBL document CHEMBL4622945, “Synthesis and antiproliferative activity of C- and N-terminal analogues of culicinin D” (Bioorg Med Chem Lett, 2020).

Molecules are shown by their SMILES. Square brackets hold non-standard residues; d marks the D form. Peptide text beside a SMILES is read from it. * marks the point of attachment. NH((S)CH(Me)CH2NHC2H4OH) = C[C@@H](CNCCO)N*; Alaψ(CH2NMeCH2CH2OH) = C[C@@H](CN(C)CCO)N*; NH((S)CH(Me)CH2NMe2) = C[C@@H](CN(C)C)N*; NH((S)CH(CH3)CH2NHMe) = CNC[C@H](C)N*; Gly(octyl) = CCCCCCCC[C@H](N)C(=O)O; X5 = C[C@@H](N*)[C@@H](O)c1ccccc1; Hyp = O=C(O)[C@@H]1C[C@@H](O)CN1; Cha = N[C@@H](CC1CCCCC1)C(=O)O; Phe(ol) = N[C@H](CO)Cc1ccccc1; Lauroyl = CCCCCCCCCCCC(=O)*; Pip = O=C(O)[C@@H]1CCCCN1; X1 = C[C@@H](CN1CCNCC1)N*; Octanoyl = CCCCCCCC(=O)*; NHCH2CH2NHMe = CNCCN*; Aib = CC(C)(N)C(=O)O; Butyryl = CCCC(=O)*; NHCH2CH2OH = OCCN*; βAla = NCCC(=O)O

What all share (type): functional, cell-based
The test system of one test is MDA-MB-468. Briefly: Antiproliferative activity against human MDA-MB-468 cells assessed as reduction in cell growth by SRB assay.
The next test deals with SK-BR-3. Briefly: Antiproliferative activity against human SKBR3 cells assessed as reduction in cell growth by SRB assay.
The subject of a further test is T47D. Put plainly: Antiproliferative activity against human T47D cells assessed as reduction in cell growth by SRB assay.
The subject of a further test is NCI-H460. Put plainly: Antiproliferative activity against human NCI-H460 cells assessed as reduction in cell growth by SRB assay.

On to `CCCCCCCC[C@H](NC(=O)C(C)(C)NC(=O)C(C)(C)NC(=O)[C@H](CC1CCCCC1)NC(=O)[C@@H]1CCCN1C(=O)CCCCCCC)C(=O)N[C@@H](CC(C)C)C(=O)NC(C)(C)C(=O)N[C@@H](CC(C)C)C(=O)NCCC(=O)N[C@@H](C)CNCCO` (Octanoyl-P[Cha][Aib][Aib][Gly(octyl)]L[Aib]L[βAla]-{NH((S)CH(Me)CH2NHC2H4OH)}), for which the IC50 with MDA-MB-468 is 4 nM; in the test with SK-BR-3 it was 15 nM; with T47D it was 7 nM; in the test with NCI-H460, 4 nM.
`CCCCCCCC[C@H](NC(=O)C(C)(C)NC(=O)C(C)(C)NC(=O)[C@H](CC1CCCCC1)NC(=O)[C@@H]1CCCN1C(=O)CCC)C(=O)N[C@@H](CC(C)C)C(=O)NC(C)(C)C(=O)N[C@@H](CC(C)C)C(=O)NCCC(=O)NCCNC` (Butyryl-P[Cha][Aib][Aib][Gly(octyl)]L[Aib]L[βAla]-NHCH2CH2NHMe): the IC50 in the test on MDA-MB-468 amounted to 5 nM; in the test with SK-BR-3, 27 nM; in the test on T47D, 8 nM; with NCI-H460 it was 10 nM.
Turning to `CCCCCCCC[C@H](NC(=O)C(C)(C)NC(=O)C(C)(C)NC(=O)[C@H](CC1CCCCC1)NC(=O)[C@@H]1CCCN1C(=O)CCC)C(=O)N[C@@H](CC(C)C)C(=O)NC(C)(C)C(=O)N[C@@H](CC(C)C)C(=O)NCCC(=O)N[C@H](C)[C@@H](O)c1ccccc1` (Butyryl-P[Cha][Aib][Aib][Gly(octyl)]L[Aib]L[βAla]-X5), the IC50 came out at 242 nM with MDA-MB-468, 344 nM with SK-BR-3, 471 nM in the test with T47D and 89 nM in the test on NCI-H460.
The matching figures for `CCCCCCCCCCCC(=O)N1CCC[C@H]1C(=O)N[C@@H](CC1CCCCC1)C(=O)NC(C)(C)C(=O)NC(C)(C)C(=O)N[C@@H](CCCCCCCC)C(=O)N[C@@H](CC(C)C)C(=O)NC(C)(C)C(=O)N[C@@H](CC(C)C)C(=O)NCCC(=O)N[C@@H](C)CNCCO` (Lauroyl-P[Cha][Aib][Aib][Gly(octyl)]L[Aib]L[βAla]-{NH((S)CH(Me)CH2NHC2H4OH)}): 23 nM, 73 nM, 63 nM and 37 nM.
As for `CCCCCCCC[C@H](NC(=O)C(C)(C)NC(=O)C(C)(C)NC(=O)[C@H](CC1CCCCC1)NC(=O)[C@@H]1CCCN1C(=O)CCC)C(=O)N[C@@H](CC(C)C)C(=O)NC(C)(C)C(=O)N[C@@H](CC(C)C)C(=O)NCCC(=O)N[C@@H](C)CNC` (Butyryl-P[Cha][Aib][Aib][Gly(octyl)]L[Aib]L[βAla]-{NH((S)CH(CH3)CH2NHMe)}), the IC50 in the test on MDA-MB-468 was found to be 3 nM; in the test with SK-BR-3, 13 nM; in the test with T47D, 5 nM; in the test on NCI-H460, 3 nM.
Turning to `CCCCCCCC[C@H](NC(=O)C(C)(C)NC(=O)C(C)(C)NC(=O)[C@H](CC1CCCCC1)NC(=O)[C@@H]1CCCN1C(=O)CCC)C(=O)N[C@@H](CC(C)C)C(=O)NC(C)(C)C(=O)N[C@@H](CC(C)C)C(=O)NCCC(=O)N[C@H](CO)Cc1ccccc1` (Butyryl-P[Cha][Aib][Aib][Gly(octyl)]L[Aib]L[βAla][Phe(ol)]), the IC50 in the test with MDA-MB-468 was determined as 144 nM; in the test with SK-BR-3, 178 nM; in the test on T47D, 247 nM; in the test on NCI-H460, 45 nM.
Consider `CCCCCCCC[C@H](NC(=O)C(C)(C)NC(=O)C(C)(C)NC(=O)[C@H](CC1CCCCC1)NC(=O)[C@@H]1CCCCN1C(=O)CCC)C(=O)N[C@@H](CC(C)C)C(=O)NC(C)(C)C(=O)N[C@@H](CC(C)C)C(=O)NCCC(=O)N[C@@H](C)CNCCO` (Butyryl-[Pip][Cha][Aib][Aib][Gly(octyl)]L[Aib]L[βAla]-{NH((S)CH(Me)CH2NHC2H4OH)}), for which the IC50 was 11 nM in the test on MDA-MB-468, 34 nM in the test with SK-BR-3, 11 nM with T47D and 9 nM in the test on NCI-H460.
With `CCCCCCCC[C@H](NC(=O)C(C)(C)NC(=O)C(C)(C)NC(=O)[C@H](CC1CCCCC1)NC(=O)[C@@H]1CCCN1C(=O)CCC)C(=O)N[C@@H](CC(C)C)C(=O)NC(C)(C)C(=O)N[C@@H](CC(C)C)C(=O)NCCC(=O)N[C@@H](C)CN(C)C` (Butyryl-P[Cha][Aib][Aib][Gly(octyl)]L[Aib]L[βAla]-{NH((S)CH(Me)CH2NMe2)}), the IC50 in the test on MDA-MB-468 is 4 nM; in the test on SK-BR-3, 10 nM; with T47D, 6 nM; with NCI-H460, 4 nM.
As for `CCCCCCCC[C@H](NC(=O)C(C)(C)NC(=O)C(C)(C)NC(=O)[C@H](CC1CCCCC1)NC(=O)[C@@H]1CCCN1C(=O)CCC)C(=O)N[C@@H](CC(C)C)C(=O)NC(C)(C)C(=O)N[C@@H](CC(C)C)C(=O)NCCC(=O)O` (Butyryl-P[Cha][Aib][Aib][Gly(octyl)]L[Aib]L[βAla]-OH), the IC50 with MDA-MB-468, in the test on SK-BR-3, with T47D and in the test with NCI-H460 was > 1000 nM throughout.
As to `CCCCCCCC[C@H](NC(=O)C(C)(C)NC(=O)C(C)(C)NC(=O)[C@H](CC1CCCCC1)NC(=O)[C@@H]1CCCN1C(C)=O)C(=O)N[C@@H](CC(C)C)C(=O)NC(C)(C)C(=O)N[C@@H](CC(C)C)C(=O)NCCC(=O)N[C@@H](C)CNCCO` (Ac-P[Cha][Aib][Aib][Gly(octyl)]L[Aib]L[βAla]-{NH((S)CH(Me)CH2NHC2H4OH)}), the IC50 with MDA-MB-468 stood at 13 nM; in the test on SK-BR-3 it was 52 nM; in the test on T47D it was 15 nM; in the test with NCI-H460 it was 11 nM.
For `CCCCCCCC[C@H](NC(=O)C(C)(C)NC(=O)C(C)(C)NC(=O)[C@H](CC1CCCCC1)NC(=O)[C@@H]1CCCN1C(=O)CCC)C(=O)N[C@@H](CC(C)C)C(=O)NC(C)(C)C(=O)N[C@@H](CC(C)C)C(=O)NCCC(=O)N[C@@H](C)CN(C)CCO` (Butyryl-P[Cha][Aib][Aib][Gly(octyl)]L[Aib]L[βAla]-{Alaψ(CH2NMeCH2CH2OH)}) the same measures were 2 nM, 8 nM, 3 nM and 2 nM.
The matching figures for `CCCCCCCC[C@H](NC(=O)C(C)(C)NC(=O)C(C)(C)NC(=O)[C@H](CC1CCCCC1)NC(=O)[C@@H]1CCCN1C(=O)CCC)C(=O)N[C@@H](CC(C)C)C(=O)NC(C)(C)C(=O)N[C@@H](CC(C)C)C(=O)NCCC(=O)N[C@@H](C)CN1CCNCC1` (Butyryl-P[Cha][Aib][Aib][Gly(octyl)]L[Aib]L[βAla]-X1): > 1000 nM, > 1000 nM, > 1000 nM and > 1000 nM.
The matching figures for `CCCCCCCC[C@H](NC(=O)C(C)(C)NC(=O)C(C)(C)NC(=O)[C@H](CC1CCCCC1)NC(=O)[C@@H]1C[C@@H](O)CN1C(=O)CCC)C(=O)N[C@@H](CC(C)C)C(=O)NC(C)(C)C(=O)N[C@@H](CC(C)C)C(=O)NCCC(=O)N[C@@H](C)CNCCO` (Butyryl-[Hyp][Cha][Aib][Aib][Gly(octyl)]L[Aib]L[βAla]-{NH((S)CH(Me)CH2NHC2H4OH)}): 37 nM, 124 nM, 38 nM and 40 nM.
Regarding `CCCCCCCC[C@H](NC(=O)C(C)(C)NC(=O)C(C)(C)NC(=O)[C@H](CC1CCCCC1)NC(=O)[C@@H]1CCCN1C(=O)CCC)C(=O)N[C@@H](CC(C)C)C(=O)NC(C)(C)C(=O)N[C@@H](CC(C)C)C(=O)NCCC(=O)NCCO` (Butyryl-P[Cha][Aib][Aib][Gly(octyl)]L[Aib]L[βAla]-NHCH2CH2OH), the IC50 is 363 nM in the test with MDA-MB-468, 512 nM in the test with SK-BR-3, 767 nM with T47D and 223 nM in the test on NCI-H460.
